Laboratory results: patent publication US20070128217A1 (priority 2003, published 2007)

Experiments:
[1] = test system: antibodies in sera from SARS patients (sera 1a, 1b, 2, 6, 37, 62, London, SARS-yellow, SARS-green); assay type: binding, human; parameters: Binding of serum 6 to linear peptides of protein X1 of SARS-CoV Urbani / Binding of serum 37 to linear peptides of protein X1 of SARS-CoV Urbani / Binding of serum 6 to looped/cyclic peptide (PEPSCAN-ELISA) / Binding of serum 37 to looped/cyclic peptide (PEPSCAN-ELISA) / Binding of serum 37 to looped/cyclic peptides of protein X1 of SARS-CoV Urbani / Binding of serum 6 to linear peptides of protein X2 / Binding of serum 37 to linear peptides of protein X2 / Binding of serum 37 to looped/cyclic peptides of protein X2 of SARS-CoV Urbani / Binding of serum 6 to linear peptides of protein M of SARS-CoV Urbani / Binding of serum 37 to linear peptides of protein M of SARS-CoV Urbani / Binding of serum 6 to looped/cyclic peptides of protein M of SARS-CoV Urbani / Binding of serum 37 to looped/cyclic peptides of protein M of SARS-CoV Urbani / Binding of serum 6 to linear peptides of protein X3 of SARS-CoV Urbani / Binding of serum 37 to linear peptides of protein X3 of SARS-CoV Urbani / Binding of serum 37 to looped/cyclic peptides of protein X3 of SARS-CoV Urbani / Binding of serum 6 to linear peptides of protein X4 of SARS-CoV Urbani / Binding of serum 37 to linear peptides of protein X4 of SARS-CoV Urbani / Binding of serum 37 to looped/cyclic peptides of protein X4 of SARS-CoV Urbani / Binding of serum 6 to linear peptides of protein X5 of SARS-CoV Urbani / Binding of serum 37 to linear peptides of protein X5 of SARS-CoV Urbani / Binding of serum 37 to looped/cyclic peptides of protein X5 of SARS-CoV Urbani / Binding of serum 6 to linear peptides of protein N of SARS-CoV Urbani / Binding of serum 37 to linear peptides of protein N of SARS-CoV Urbani / Binding of serum 6 to linear peptide (PEPSCAN-ELISA) / Binding of serum 1a to looped/cyclic peptides of protein N of SARS-CoV Urbani / Binding of serum 1b to looped/cyclic peptides of protein N of SARS-CoV Urbani / Binding of serum 2 to looped/cyclic peptides of protein N of SARS-CoV Urbani / Binding of serum 6 to looped/cyclic peptides of protein N of SARS-CoV Urbani / Binding of serum 37 to looped/cyclic peptides of protein N of SARS-CoV Urbani / Binding of serum 62 to looped/cyclic peptides of protein N of SARS-CoV Urbani / Binding of serum London to looped/cyclic peptides of protein N of SARS-CoV Urbani / Binding of serum SARS-green to looped/cyclic peptides of protein N of SARS-CoV Urbani: unit not given here
[2] = test system: control sera (pooled serum of ten healthy LUMC hospital workers; commercial negative donor pooled serum from the Dutch bloodbank); assay type: binding, human; parameters: Binding of Control serum LUMC to linear peptides / Binding of Control serum Blood-bank to linear peptides / Binding of Control serum LUMC to looped peptides / Binding of Control Serum Blood-Bank to Looped peptides / Binding of Control serum LUMC to linear peptides of the protein M of SARS-CoV Urbani / Binding of Control serum Blood-bank to linear peptides of the protein M of SARS-CoV Urbani / Binding of Control serum LUMC to looped peptides of the protein M of SARS-CoV Urbani / Binding of Control Serum Blood-Bank to Looped peptides of the protein M of SARS-CoV Urbani: unit not given here
[3] = test system: rabbit serum obtained by immunizing a rabbit with the SARS-CoV strain Frankfurt 1; assay type: binding; parameters: Binding of a rabbit serum to linear peptides / Binding of a rabbit serum to looped peptides / Rabbit serum linear peptides / Rabbit serum looped peptides / Binding of a rabbit serum to linear peptides of protein N of SARS-CoV Urbani (Rabbit serum linear peptides) / Binding of a rabbit serum to looped/cyclic peptides of protein N of SARS-CoV Urbani (Rabbit serum looped peptides): unit not given here

Sequence: LVIGAVIIRGHLRMA
- Binding of serum 1a to linear peptides of protein M of SARS-CoV Urbani [1]: 0.7
- Binding of serum 1a to looped/cyclic peptides of protein M of SARS-CoV Urbani [1]: 0.8
- Binding of serum 1b to linear peptides of protein M of SARS-CoV Urbani [1]: 0.5
- Binding of serum 1b to looped/cyclic peptides of protein M of SARS-CoV Urbani [1]: 0.4
- Binding of serum 2 to linear peptides of protein M of SARS-CoV Urbani [1]: 0.5
- Binding of serum 2 to looped/cyclic peptides of protein M of SARS-CoV Urbani [1]: 0.8
- Binding of serum 6 to linear peptides of protein M of SARS-CoV Urbani [1]: 0.6
- Binding of serum 6 to looped/cyclic peptides of protein M of SARS-CoV Urbani [1]: 1.2
- Binding of serum 37 to linear peptides of protein M of SARS-CoV Urbani [1]: 0.4
- Binding of serum 37 to looped/cyclic peptides of protein M of SARS-CoV Urbani [1]: 0.7
- Binding of serum 62 to linear peptides of protein M of SARS-CoV Urbani [1]: 0.4
- Binding of serum 62 to looped/cyclic peptides of protein M of SARS-CoV Urbani [1]: 0.8
- Binding of serum London to linear peptides of protein M of SARS-CoV Urbani [1]: 0.3
- Binding of serum SARS-green to linear peptides of protein M of SARS-CoV Urbani [1]: 0.4
- Binding of serum SARS-green to looped/cyclic peptides of protein M of SARS-CoV Urbani [1]: 0.3
- Binding of serum SARS-yellow to linear peptides of protein M of SARS-CoV Urbani [1]: 0.3
- Binding of serum SARS-yellow to looped/cyclic peptides of protein M of SARS-CoV Urbani [1]: 0.7
- Binding of Control Serum Blood-Bank to Looped peptides of the protein M of SARS-CoV Urbani [2]: 0.7
- Binding of Control serum Blood-bank to linear peptides of the protein M of SARS-CoV Urbani [2]: 0.6
- Binding of Control serum LUMC to linear peptides of the protein M of SARS-CoV Urbani [2]: 0.7
- Binding of Control serum LUMC to looped peptides of the protein M of SARS-CoV Urbani [2]: 0.7
- Rabbit serum linear peptides [3]: 0.2
- Rabbit serum looped peptides [3]: 1.4

Sequence: LVIGVAFLAVFQSAT
- Binding of serum 1a to linear peptides of protein X1 of SARS-CoV Urbani [1]: 0.7
- Binding of serum 1a to looped/cyclic peptide (PEPSCAN-ELISA) [1]: 0.8
- Binding of serum 1b to linear peptides of protein X1 of SARS-CoV Urbani [1]: 0.6
- Binding of serum 1b to looped/cyclic peptide (PEPSCAN-ELISA) [1]: 0.6
- Binding of serum 2 to linear peptides of protein X1 of SARS-CoV Urbani [1]: 0.6
- Binding of serum 2 to looped/cyclic peptide (PEPSCAN-ELISA) [1]: 0.7
- Binding of serum 6 to linear peptides of protein X1 of SARS-CoV Urbani [1]: 0.4
- Binding of serum 6 to looped/cyclic peptide (PEPSCAN-ELISA) [1]: 0.7
- Binding of serum 37 to linear peptides of protein X1 of SARS-CoV Urbani [1]: 0.6
- Binding of serum 37 to looped/cyclic peptide (PEPSCAN-ELISA) [1]: 0.8
- Binding of serum 62 to linear peptides of protein X1 of SARS-CoV Urbani [1]: 0.6
- Binding of serum 62 to looped/cyclic peptide (PEPSCAN-ELISA) [1]: 1.0
- Binding of serum London to linear peptides of protein X1 of SARS-CoV Urbani [1]: 0.3
- Binding of serum London to looped/cyclic peptide (PEPSCAN-ELISA) [1]: 0.3
- Binding of serum SARS-green to linear peptides of protein X1 of SARS-CoV Urbani [1]: 0.3
- Binding of serum SARS-green to looped/cyclic peptide (PEPSCAN-ELISA) [1]: 0.5
- Binding of serum SARS-yellow to linear peptides of protein X1 of SARS-CoV Urbani [1]: 0.4
- Binding of serum SARS-yellow to looped/cyclic peptide (PEPSCAN-ELISA) [1]: 0.7
- Binding of Control Serum Blood-Bank to Looped peptides [2]: 1.1
- Binding of Control serum Blood-bank to linear peptides [2]: 0.6
- Binding of Control serum LUMC to linear peptides [2]: 0.6
- Binding of Control serum LUMC to looped peptides [2]: 1.0
- Binding of a rabbit serum to linear peptides [3]: 0.3
- Binding of a rabbit serum to looped peptides [3]: 1.2

Sequence: LWLLWPVTLACFVLA
- Binding of serum 1a to linear peptides of protein M of SARS-CoV Urbani [1]: 0.7
- Binding of serum 1a to looped/cyclic peptides of protein M of SARS-CoV Urbani [1]: 0.7
- Binding of serum 1b to linear peptides of protein M of SARS-CoV Urbani [1]: 0.6
- Binding of serum 1b to looped/cyclic peptides of protein M of SARS-CoV Urbani [1]: 0.4
- Binding of serum 2 to linear peptides of protein M of SARS-CoV Urbani [1]: 0.4
- Binding of serum 2 to looped/cyclic peptides of protein M of SARS-CoV Urbani [1]: 0.6
- Binding of serum 6 to linear peptides of protein M of SARS-CoV Urbani [1]: 0.5
- Binding of serum 6 to looped/cyclic peptides of protein M of SARS-CoV Urbani [1]: 0.5
- Binding of serum 37 to linear peptides of protein M of SARS-CoV Urbani [1]: 0.4
- Binding of serum 37 to looped/cyclic peptides of protein M of SARS-CoV Urbani [1]: 0.7
- Binding of serum 62 to linear peptides of protein M of SARS-CoV Urbani [1]: 0.4
- Binding of serum 62 to looped/cyclic peptides of protein M of SARS-CoV Urbani [1]: 0.6
- Binding of serum London to linear peptides of protein M of SARS-CoV Urbani [1]: 0.4
- Binding of serum London to looped/cyclic peptides of protein M of SARS-CoV Urbani [1]: 0.2
- Binding of serum SARS-green to linear peptides of protein M of SARS-CoV Urbani [1]: 0.4
- Binding of serum SARS-green to looped/cyclic peptides of protein M of SARS-CoV Urbani [1]: 0.2
- Binding of serum SARS-yellow to linear peptides of protein M of SARS-CoV Urbani [1]: 0.2
- Binding of serum SARS-yellow to looped/cyclic peptides of protein M of SARS-CoV Urbani [1]: 0.6
- Binding of Control Serum Blood-Bank to Looped peptides of the protein M of SARS-CoV Urbani [2]: 0.5
- Binding of Control serum Blood-bank to linear peptides of the protein M of SARS-CoV Urbani [2]: 0.5
- Binding of Control serum LUMC to linear peptides of the protein M of SARS-CoV Urbani [2]: 0.5
- Binding of Control serum LUMC to looped peptides of the protein M of SARS-CoV Urbani [2]: 0.6
- Rabbit serum linear peptides [3]: 0.1
- Rabbit serum looped peptides [3]: 0.4
